Source: PubChem BioAssay (NCI)
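96-well plates; 48 h exposure; 5 concentrations. Endpoints by linear interpolation between flanking doses. Not reached: highest tested concentration assigned. The concentration for full growth arrest is given as TGI.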

How the values were obtained:
Experiment in all cases: NCI anticancer screen, dose series, 48 h
PC-3 prostate = system: PC-3 prostate
T-47D breast = system: T-47D breast
SK-OV-3 ovarian = system: SK-OV-3 ovarian
COLO 205 colon = system: COLO 205 colon
U251 CNS = system: U251 CNS
SK-MEL-2 melanoma = system: SK-MEL-2 melanoma
OVCAR-4 ovarian = system: OVCAR-4 ovarian
UO-31 renal = system: UO-31 renal
HS 578T breast = system: HS 578T breast
SW-620 colon = system: SW-620 colon
NCI/ADR-RES ovarian = system: NCI/ADR-RES ovarian
DU-145 prostate = system: DU-145 prostate
KM12 colon = system: KM12 colon
RPMI-8226 leukemia = system: RPMI-8226 leukemia
SNB-75 CNS = system: SNB-75 CNS
HCT-15 colon = system: HCT-15 colon
EKVX NSCLC = system: EKVX NSCLC
RXF 393 renal = system: RXF 393 renal
A498 renal = system: A498 renal
SF-268 CNS = system: SF-268 CNS
CCRF-CEM leukemia = system: CCRF-CEM leukemia
SK-MEL-5 melanoma = system: SK-MEL-5 melanoma
HOP-62 NSCLC = system: HOP-62 NSCLC
HCT-116 colon = system: HCT-116 colon
HOP-92 NSCLC = system: HOP-92 NSCLC
A549 NSCLC = system: A549 NSCLC
BT-549 breast = system: BT-549 breast
HL-60(TB) leukemia = system: HL-60(TB) leukemia
SK-MEL-28 melanoma = system: SK-MEL-28 melanoma
NCI-H460 lung = system: NCI-H460 lung
SF-295 CNS = system: SF-295 CNS
MOLT-4 leukemia = system: MOLT-4 leukemia
SNB-19 CNS = system: SNB-19 CNS
TK-10 renal = system: TK-10 renal
UACC-257 melanoma = system: UACC-257 melanoma
OVCAR-3 ovarian = system: OVCAR-3 ovarian
OVCAR-5 ovarian = system: OVCAR-5 ovarian
MDA-N = system: MDA-N
M14 melanoma = system: M14 melanoma
HCC-2998 colon = system: HCC-2998 colon
SN12C renal = system: SN12C renal
CAKI-1 renal = system: CAKI-1 renal
HT29 colon = system: HT29 colon
SR leukemia = system: SR leukemia
LOX IMVI melanoma = system: LOX IMVI melanoma
MCF7 breast = system: MCF7 breast
NCI-H23 lung = system: NCI-H23 lung
IGROV1 ovarian = system: IGROV1 ovarian
MDA-MB-231 breast = system: MDA-MB-231 breast
OVCAR-8 ovarian = system: OVCAR-8 ovarian
MDA-MB-435 = system: MDA-MB-435
786-0 renal = system: 786-0 renal
NCI-H226 lung = system: NCI-H226 lung
ACHN renal = system: ACHN renal
NCI-H522 lung = system: NCI-H522 lung
MALME-3M melanoma = system: MALME-3M melanoma
SF-539 CNS = system: SF-539 CNS
UACC-62 melanoma = system: UACC-62 melanoma
K-562 leukemia = system: K-562 leukemia

## C/C(=N\NC(N)=S)C(CN1CCCCC1)C(C1=C(O)c2ccccc2OC1)c1ccccc1 (configuration not stated)
PC-3 prostate
  TGI: > 100 µM
T-47D breast
  TGI: > 100 µM
SK-OV-3 ovarian
  TGI: > 100 µM
COLO 205 colon
  TGI: > 100 µM
U251 CNS
  TGI: > 100 µM
SK-MEL-2 melanoma
  TGI: > 100 µM
OVCAR-4 ovarian
  TGI: > 100 µM
UO-31 renal
  TGI: > 100 µM
HS 578T breast
  TGI: > 100 µM
SW-620 colon
  TGI: > 100 µM
NCI/ADR-RES ovarian
  TGI: > 100 µM
DU-145 prostate
  TGI: > 100 µM
KM12 colon
  TGI: > 100 µM
RPMI-8226 leukemia
  TGI: 73.6 µM
SNB-75 CNS
  TGI: > 100 µM
HCT-15 colon
  TGI: > 100 µM
EKVX NSCLC
  TGI: > 100 µM
RXF 393 renal
  TGI: > 100 µM
A498 renal
  TGI: > 100 µM
SF-268 CNS
  TGI: > 100 µM
CCRF-CEM leukemia
  TGI: > 100 µM
SK-MEL-5 melanoma
  TGI: > 100 µM
HOP-62 NSCLC
  TGI: > 100 µM
HCT-116 colon
  TGI: > 100 µM
HOP-92 NSCLC
  TGI: > 100 µM
A549 NSCLC
  TGI: > 100 µM
BT-549 breast
  TGI: > 100 µM
HL-60(TB) leukemia
  TGI: 88.4 µM
SK-MEL-28 melanoma
  TGI: > 100 µM
NCI-H460 lung
  TGI: > 100 µM
SF-295 CNS
  TGI: > 100 µM
MOLT-4 leukemia
  TGI: > 100 µM
SNB-19 CNS
  TGI: > 100 µM
TK-10 renal
  TGI: > 100 µM
UACC-257 melanoma
  TGI: > 100 µM
OVCAR-3 ovarian
  TGI: > 100 µM
OVCAR-5 ovarian
  TGI: > 100 µM
MDA-N
  TGI: > 100 µM
M14 melanoma
  TGI: > 100 µM
HCC-2998 colon
  TGI: > 100 µM
SN12C renal
  TGI: > 100 µM
CAKI-1 renal
  TGI: > 100 µM
HT29 colon
  TGI: > 100 µM
SR leukemia
  TGI: > 100 µM
LOX IMVI melanoma
  TGI: > 100 µM
MCF7 breast
  TGI: > 100 µM
NCI-H23 lung
  TGI: > 100 µM
IGROV1 ovarian
  TGI: > 100 µM
MDA-MB-231 breast
  TGI: > 100 µM
OVCAR-8 ovarian
  TGI: > 100 µM
MDA-MB-435
  TGI: > 100 µM
786-0 renal
  TGI: > 100 µM
NCI-H226 lung
  TGI: > 100 µM
ACHN renal
  TGI: > 100 µM
NCI-H522 lung
  TGI: > 100 µM
MALME-3M melanoma
  TGI: > 100 µM
SF-539 CNS
  TGI: > 100 µM
UACC-62 melanoma
  TGI: > 100 µM

## CC(C)C(=O)/C=C/c1ccc(Cl)cc1Cl
PC-3 prostate
  TGI: 32.8 µM
T-47D breast
  TGI: 25.7 µM
SK-OV-3 ovarian
  TGI: 33.7 µM
COLO 205 colon
  TGI: 32.7 µM
U251 CNS
  TGI: 25.2 µM
SK-MEL-2 melanoma
  TGI: 27.6 µM
OVCAR-4 ovarian
  TGI: 20.9 µM
UO-31 renal
  TGI: 23.5 µM
HS 578T breast
  TGI: 22.2 µM
SW-620 colon
  TGI: 7.92 µM
NCI/ADR-RES ovarian
  TGI: 54.6 µM
DU-145 prostate
  TGI: 27.2 µM
KM12 colon
  TGI: 13.7 µM
RPMI-8226 leukemia
  TGI: > 100 µM
SNB-75 CNS
  TGI: 27.7 µM
HCT-15 colon
  TGI: 25.2 µM
EKVX NSCLC
  TGI: 31 µM
RXF 393 renal
  TGI: 22.2 µM
A498 renal
  TGI: 31.8 µM
SF-268 CNS
  TGI: 22.5 µM
CCRF-CEM leukemia
  TGI: 50.7 µM
SK-MEL-5 melanoma
  TGI: 27.9 µM
HOP-62 NSCLC
  TGI: 33.1 µM
HCT-116 colon
  TGI: 10 µM
HOP-92 NSCLC
  TGI: 30.8 µM
A549 NSCLC
  TGI: 30.4 µM
BT-549 breast
  TGI: 14.9 µM
HL-60(TB) leukemia
  TGI: > 100 µM
SK-MEL-28 melanoma
  TGI: 30.6 µM
NCI-H460 lung
  TGI: 23.4 µM
SF-295 CNS
  TGI: 30.9 µM
MOLT-4 leukemia
  TGI: 96.4 µM
SNB-19 CNS
  TGI: 29.3 µM
TK-10 renal
  TGI: 27.2 µM
UACC-257 melanoma
  TGI: 26 µM
K-562 leukemia
  TGI: > 100 µM
OVCAR-3 ovarian
  TGI: 16.1 µM
OVCAR-5 ovarian
  TGI: 30.7 µM
MDA-N
  TGI: 7.06 µM
M14 melanoma
  TGI: 20 µM
HCC-2998 colon
  TGI: 30 µM
SN12C renal
  TGI: 23 µM
CAKI-1 renal
  TGI: 24.8 µM
HT29 colon
  TGI: 13.4 µM
SR leukemia
  TGI: > 100 µM
LOX IMVI melanoma
  TGI: 13.5 µM
MCF7 breast
  TGI: 14.2 µM
NCI-H23 lung
  TGI: 26.8 µM
IGROV1 ovarian
  TGI: 28.4 µM
MDA-MB-231 breast
  TGI: 38.7 µM
OVCAR-8 ovarian
  TGI: 22.8 µM
MDA-MB-435
  TGI: 10 µM
786-0 renal
  TGI: 27.2 µM
NCI-H226 lung
  TGI: 41 µM
ACHN renal
  TGI: 29.7 µM
NCI-H522 lung
  TGI: 22.8 µM
MALME-3M melanoma
  TGI: 28.2 µM
SF-539 CNS
  TGI: 34 µM
UACC-62 melanoma
  TGI: 25.7 µM
